Measurements taken from patent US20260042755A1, “GPR6 INVERSE AGONISTS” (MapLight Therapeutics, Inc., priority 2022, published 2026).

What was measured:
GPR6 = molecular target: T1, GPR6 (Homo sapiens, UniProt P46095); experiment: GPR6 antagonist functional cAMP assay (LANCE Ultra cAMP TR-FRET, CHO cells stably expressing GPR6); format: cell-based; details: procedure of Example 24
T1 construct: expressed in transfected cells; host or cells: CHO cells
Summary of the method: (§1)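 Read-out was TR-FRET cAMP signal at 665 nm after 1 h at room temperature, following 45 min compound exposure at 37 °C. Assay buffer contained 0.1% BSA and 150 μM Ro 20-1724. Antagonist IC50s were fitted with a 4-parameter logistic against DMSO and reference controls.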

GPR3 = molecular target: T2, GPR3 (Homo sapiens, UniProt P46089); experiment: GPR3 antagonist functional cAMP assay (LANCE Ultra cAMP TR-FRET, CHO cells stably expressing GPR3); format: cell-based; details: procedure of Example 24
T2 construct: expressed in transfected cells; host or cells: CHO cells
Summary of the method: as §1

T2 sequence (P46089 whole entry, species assumed): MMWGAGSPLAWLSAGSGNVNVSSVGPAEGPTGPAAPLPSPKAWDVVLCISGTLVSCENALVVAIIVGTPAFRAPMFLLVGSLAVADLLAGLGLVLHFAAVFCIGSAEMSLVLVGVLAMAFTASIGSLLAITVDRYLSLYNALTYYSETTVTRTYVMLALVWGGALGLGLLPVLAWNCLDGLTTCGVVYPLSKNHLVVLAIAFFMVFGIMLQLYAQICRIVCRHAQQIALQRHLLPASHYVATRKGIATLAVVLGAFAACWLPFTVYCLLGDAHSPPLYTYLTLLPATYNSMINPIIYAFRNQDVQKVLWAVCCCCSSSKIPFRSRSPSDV
T1 sequence (P46095 whole entry): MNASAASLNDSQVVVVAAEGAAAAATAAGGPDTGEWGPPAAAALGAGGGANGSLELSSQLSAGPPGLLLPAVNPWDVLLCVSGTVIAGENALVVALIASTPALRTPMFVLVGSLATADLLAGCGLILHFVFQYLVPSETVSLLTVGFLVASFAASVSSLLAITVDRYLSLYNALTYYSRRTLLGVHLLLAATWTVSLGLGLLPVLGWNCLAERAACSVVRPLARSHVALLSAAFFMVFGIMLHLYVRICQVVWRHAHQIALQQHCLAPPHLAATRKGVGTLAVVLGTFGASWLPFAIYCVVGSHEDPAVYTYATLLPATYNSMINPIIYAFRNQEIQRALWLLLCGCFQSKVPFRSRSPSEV

Row | Structure (SMILES) | IC50 (GPR6) [nM] | IC50 (GPR3) [nM]
1 | CC(=O)N1CCc2nc(N3CCN(Cc4c(F)cccc4F)CC3)c(-c3cnn(C)c3)nc2C1 [Compound 346, 1-(2-{4-[(2,6-difluorophenyl)methyl]piperazin-1-yl}-3-(1-methyl-1H-pyrazol-4-yl)-5H,6H,7H,8H-pyrido[3,4-b]pyrazin-6-yl)ethan-1-one] | 1000 to 30000 | 100 to 1000
2 | CC(=O)N1CCc2nc(N3CCN(Cc4ccc(F)cc4C)CC3)c(-c3cnn(C)c3)nc2C1 [Compound 347, 1-(2-{4-[(4-fluoro-2-methylphenyl)methyl]piperazin-1-yl}-3-(1-methyl-1H-pyrazol-4-yl)-5H,6H,7H,8H-pyrido[3,4-b]pyrazin-6-yl)ethan-1-one] | 1000 to 30000 | 1000 to 30000
3 | CC(=O)N1CCc2nc(N3CCN(Cc4ccc(Cl)cc4Cl)CC3)c(-c3cnn(C)c3)nc2C1 [Compound 350, 1-(2-{4-[(2,4-dichlorophenyl)methyl]piperazin-1-yl}-3-(1-methyl-1H-pyrazol-4-yl)-5H,6H,7H,8H-pyrido[3,4-b]pyrazin-6-yl)ethan-1-one] | 1000 to 30000 | 1000 to 30000
4 | CC(=O)N1CCc2nc(N3CCN(Cc4ccccc4C#N)CC3)c(-c3cnn(C)c3)nc2C1 [Compound 351, 2-({4-[6-acetyl-3-(1-methyl-1H-pyrazol-4-yl)-5H,6H,7H,8H-pyrido[3,4-b]pyrazin-2-yl]piperazin-1-yl}methyl)benzonitrile] | 1000 to 30000 | 1000 to 30000
5 | CC(=O)N1CCc2nc(N3CCN(Cc4cc(F)cc(F)c4)CC3)c(-c3cnn(C)c3)nc2C1 [Compound 353, 1-(2-{4-[(3,5-difluorophenyl)methyl]piperazin-1-yl}-3-(1-methyl-1H-pyrazol-4-yl)-5H,6H,7H,8H-pyrido[3,4-b]pyrazin-6-yl)ethan-1-one] | 1000 to 30000 | 1000 to 30000
6 | CC(=O)N1CCc2nc(N3CCN(Cc4c(F)ccc(F)c4F)CC3)c(-c3cnn(C)c3)nc2C1 [Compound 354, 1-[3-(1-methyl-1H-pyrazol-4-yl)-2-{4-[(2,3,6-trifluorophenyl)methyl]piperazin-1-yl}-5H,6H,7H,8H-pyrido[3,4-b]pyrazin-6-yl]ethan-1-one] | 1000 to 30000 | 1000 to 30000
7 | CC(=O)N1CCc2nc(N3CCN(Cc4ccc(F)cc4C#N)CC3)c(-c3cnn(C)c3)nc2C1 [Compound 355, 2-({4-[6-acetyl-3-(1-methyl-1H-pyrazol-4-yl)-5H,6H,7H,8H-pyrido[3,4-b]pyrazin-2-yl]piperazin-1-yl}methyl)-5-fluorobenzonitrile] | 1000 to 30000 | 1000 to 30000
8 | CC(=O)N1CCc2nc(N3CCN(Cc4ccc(C#N)cc4F)CC3)c(-c3cnn(C)c3)nc2C1 [Compound 356, 4-({4-[6-acetyl-3-(1-methyl-1H-pyrazol-4-yl)-5H,6H,7H,8H-pyrido[3,4-b]pyrazin-2-yl]piperazin-1-yl}methyl)-3-fluorobenzonitrile] | 1000 to 30000 | 1000 to 30000
9 | CC(=O)N1CCc2nc(N3CCN(Cc4cc(C#N)ccc4F)CC3)c(-c3cnn(C)c3)nc2C1 [Compound 357, 3-({4-[6-acetyl-3-(1-methyl-1H-pyrazol-4-yl)-5H,6H,7H,8H-pyrido[3,4-b]pyrazin-2-yl]piperazin-1-yl}methyl)-4-fluorobenzonitrile] | 1000 to 30000 | 1000 to 30000
10 | CC(=O)N1CCc2nc(N3CCN(Cc4ccc(OC(F)F)cc4F)CC3)c(-c3cnn(C)c3)nc2C1 [Compound 358, 1-[2-(4-{[4-(difluoromethoxy)-2-fluorophenyl]methyl}piperazin-1-yl)-3-(1-methyl-1H-pyrazol-4-yl)-5H,6H,7H,8H-pyrido[3,4-b]pyrazin-6-yl]ethan-1-one] | 1000 to 30000 | 1000 to 30000
11 | CC(=O)N1CCc2nc(N3CCN(Cc4ccc(OC(F)(F)F)cc4)CC3)c(-c3cnn(C)c3)nc2C1 [Compound 359, 1-[3-(1-methyl-1H-pyrazol-4-yl)-2-(4-{[4-(trifluoromethoxy)phenyl]methyl}piperazin-1-yl)-5H,6H,7H,8H-pyrido [3,4-b]pyrazin-6-yl]ethan-1-one] | 1000 to 30000 | 1000 to 30000
12 | COc1cc(F)c(CN2CCN(c3nc4c(nc3-c3cnn(C)c3)CN(C(C)=O)CC4)CC2)cc1Cl [Compound 361, 1-(2-{4-[(5-chloro-2-fluoro-4-methoxyphenyl)methyl]piperazin-1-yl}-3-(1-methyl-1H-pyrazol-4-yl)-5H,6H,7H,8H-pyrido[3,4-b]pyrazin-6-yl)ethan-1-one] | 1000 to 30000 | 1000 to 30000
13 | CCOc1ccc(CN2CCN(c3nc4c(nc3-c3cnn(C)c3)CN(C(C)=O)CC4)CC2)c(F)c1 [Compound 362, 1-(2-{4-[(4-ethoxy-2-fluorophenyl)methyl]piperazin-1-yl}-3-(1-methyl-1H-pyrazol-4-yl)-5H,6H,7H,8H-pyrido[3,4-b]pyrazin-6-yl)ethan-1-one] | 1000 to 30000 | 1000 to 30000
14 | CC(=O)N1CCc2nc(N3CCC(COc4ccccc4)C3)c(-c3cnn(C)c3)nc2C1 (stereo not drawn) [Compound 363, 1-[3-(1-methyl-1H-pyrazol-4-yl)-2-[3-(phenoxymethyl)pyrrolidin-1-yl]-5H,6H,7H,8H-pyrido[3,4-b]pyrazin-6-yl]ethan-1-one] | 1000 to 30000 | 1000 to 30000
15 | CC(=O)N1CCc2nc(N3CCC(COc4cc(F)ccc4F)C3)c(-c3cnn(C)c3)nc2C1 (stereo not drawn) [Compound 364, 1-(2-{3-[(2,5-difluorophenoxy)methyl]pyrrolidin-1-yl}-3-(1-methyl-1H-pyrazol-4-yl)-5H,6H,7H,8H-pyrido[3,4-b]pyrazin-6-yl)ethan-1-one] | 1000 to 30000 | 1000 to 30000
16 | CC(=O)N1CCc2nc(N3CCC(C(=O)Nc4ccc(F)cc4F)C3)c(-c3cnn(C)c3)nc2C1 (stereo not drawn) [Compound 365, 1-[6-acetyl-3-(1-methyl-1H-pyrazol-4-yl)-5H,6H,7H,8H-pyrido [3,4-b]pyrazin-2-yl]-N-(2,4-difluorophenyl)pyrrolidine-3-carboxamide] | ≥ 30000 | ≥ 30000
17 | CCn1cc(-c2nc3cnc(NC(C)=O)cc3nc2N2CCC(Oc3ccc(F)cc3F)CC2)cn1 [Compound 367, N-{2-[4-(2,4-difluorophenoxy)piperidin-1-yl]-3-(1-ethyl-1H-pyrazol-4-yl)pyrido[3,4-b]pyrazin-7-yl}acetamide] | 1000 to 30000 | 1000 to 30000

Other lines, results leading:

Row | IC50 (GPR6) [nM] | IC50 (GPR3) [nM] | Structure (SMILES)
18 | 1000 to 30000 | 1000 to 30000 | COc1ccc(CN2CCN(c3nc4c(nc3-c3cnn(C)c3)CN(C(C)=O)CC4)CC2)cn1 [Compound 345, 1-(2-{4-[(6-methoxypyridin-3-yl)methyl]piperazin-1-yl}-3-(1-methyl-1H-pyrazol-4-yl)-5H,6H,7H,8H-pyrido[3,4-b]pyrazin-6-yl)ethan-1-one]
19 | 100 to 1000 | 1000 to 30000 | CC(=O)N1CCc2nc(N3CCN(Cc4ccc(Cl)cc4F)CC3)c(-c3cnn(C)c3)nc2C1 [Compound 348, 1-(2-{4-[(4-chloro-2-fluorophenyl)methyl]piperazin-1-yl}-3-(1-methyl-1H-pyrazol-4-yl)-5H,6H,7H,8H-pyrido[3,4-b]pyrazin-6-yl)ethan-1-one]
20 | < 100 | 1000 to 30000 | CC(=O)N1CCc2nc(N3CCN(Cc4cc(Cl)ccc4F)CC3)c(-c3cnn(C)c3)nc2C1 [Compound 349, 1-(2-{4-[(5-chloro-2-fluorophenyl)methyl]piperazin-1-yl}-3-(1-methyl-1H-pyrazol-4-yl)-5H,6H,7H,8H-pyrido[3,4-b]pyrazin-6-yl)ethan-1-one]
21 | 100 to 1000 | 1000 to 30000 | CC(=O)N1CCc2nc(N3CCN(Cc4ccc(F)cc4F)CC3)c(-c3cnn(C)c3)nc2C1 [Compound 352, 1-(2-{4-[(2,4-difluorophenyl)methyl]piperazin-1-yl}-3-(1-methyl-1H-pyrazol-4-yl)-5H,6H,7H,8H-pyrido[3,4-b]pyrazin-6-yl)ethan-1-one]
22 | 100 to 1000 | 1000 to 30000 | CC(=O)N1CCc2nc(N3CCN(Cc4cc(Cl)c(F)cc4F)CC3)c(-c3cnn(C)c3)nc2C1 [Compound 360, 1-(2-{4-[(5-chloro-2,4-difluorophenyl)methyl]piperazin-1-yl}-3-(1-methyl-1H-pyrazol-4-yl)-5H,6H,7H,8H-pyrido[3,4-b]pyrazin-6-yl)ethan-1-one]
23 | 100 to 1000 | 1000 to 30000 | CCn1cc(-c2nc3c(nc2N2CCC(Oc4ccc(F)cc4F)CC2)CCN(C(=O)C2COC2)C3)cn1 [Compound 366, 4-(2,4-difluorophenoxy)-1-[3-(1-ethyl-1H-pyrazol-4-yl)-6-(oxetane-3-carbonyl)-5H,6H,7H,8H-pyrido[3,4-b]pyrazin-2-yl]piperidine]
24 | < 100 | 100 to 1000 | Cn1cc(-c2nc3cnccc3nc2N2CCC(Cc3ccc(F)cc3F)CC2)cn1 [Compound 368, 4-[(2,4-difluorophenyl)methyl]-1-[3-(1-methyl-1H-pyrazol-4-yl)pyrido[3,4-b]pyrazin-2-yl]piperidine]
25 | 100 to 1000 | 1000 to 30000 | Cn1cc(-c2nc3cnc(C4CNC(=O)O4)cc3nc2N2CCC(Oc3ccc(F)cc3F)CC2)cn1 (stereo not drawn) [Compound 371, 5-(2-(4-(2,4-difluorophenoxy)piperidin-1-yl)-3-(1-methyl-1H-pyrazol-4-yl)pyrido[3,4-b]pyrazin-7-yl)oxazolidin-2-one]
26 | 100 to 1000 | 1000 to 30000 | CC(=O)N1CCc2nc(N3CCC(Oc4ccc(F)cc4F)CC3)c(-c3ccc(F)c(N)n3)nc2C1 [Compound 372, 1-{3-(6-amino-5-fluoro-2-pyridyl)-2-[4-(2,4-difluorophenoxy)-1-piperidyl]-5,6,7,8-tetrahydro-1,4,6-triaza-6-naphthyl}-1-ethanone]
27 | 100 to 1000 | 1000 to 30000 | COC1CCC(c2nc3c(nc2N2CCC(Oc4ccc(F)cc4F)CC2)CCN(C(C)=O)C3)CC1 (stereo not drawn) [Compound 373, 1-(2-(4-(2,4-difluorophenoxy)piperidin-1-yl)-3-(4-methoxycyclohexyl)-7,8-dihydropyrido[3,4-b]pyrazin-6(5H)-yl)ethan-1-one]
